Source: patent US8975410B2, “Crystal forms of 5-[3-(2,5-dichloro-4, 6-dimethyl-1-oxy-pyridine-3-yl)[1,2,4] oxadiazol-5-yl]-3-nitrobenzene-1,2-diol” (BIAL—Portela & CA., S.A., priority 2008, dated 2015)

Assays:
[1] = interconversion experiments of the polymorphs; settings: for stability class of the polymorph: conclusion from interconversion experiments
[2] = drying under vacuum at ambient temperature or at 60° C.
[3] = about 5% to about 95% relative humidity at 25° C. over a period of 3 months

| Compound | polymorphic conversion in interconversion experiments [1] | polymorph produced on drying [2] | stability class of the polymorph [1] | further results |
| --- | --- | --- | --- | --- |
| Cc1c(Cl)c(C)[n+]([O-])c(Cl)c1-c1noc(-c2cc(O)c(O)c([N+](=O)[O-])c2)n1 [polymorph F, 5-[3-(2,5-dichloro-4,6-dimethyl-1-oxy-pyridin-3-yl)-[1,2,4]oxadiazol-5-yl]-3-nitrobenzene-1,2-diol] | convert into polymorph A or B |  |  |  |
| Cc1c(Cl)c(C)[n+]([O-])c(Cl)c1-c1noc(-c2cc(O)c(O)c([N+](=O)[O-])c2)n1 [polymorph E, 5-[3-(2,5-dichloro-4,6-dimethyl-1-oxy-pyridin-3-yl)-[1,2,4]oxadiazol-5-yl]-3-nitrobenzene-1,2-diol] | convert into polymorph A or B | produced polymorph A |  |  |
| Cc1c(Cl)c(C)[n+]([O-])c(Cl)c1-c1noc(-c2cc(O)c(O)c([N+](=O)[O-])c2)n1 [polymorph A, 5-[3-(2,5-dichloro-4,6-dimethyl-1-oxy-pyridin-3-yl)-[1,2,4]oxadiazol-5-yl]-3-nitrobenzene-1,2-diol] |  |  | thermodynamically stable polymorph | hygroscopicity [3]: non-hygroscopic |
| Cc1c(Cl)c(C)[n+]([O-])c(Cl)c1-c1noc(-c2cc(O)c(O)c([N+](=O)[O-])c2)n1 [polymorph D, 5-[3-(2,5-dichloro-4,6-dimethyl-1-oxy-pyridin-3-yl)-[1,2,4]oxadiazol-5-yl]-3-nitrobenzene-1,2-diol] | convert into polymorph A or B |  |  |  |
| Cc1c(Cl)c(C)[n+]([O-])c(Cl)c1-c1noc(-c2cc(O)c(O)c([N+](=O)[O-])c2)n1 [polymorph C, 5-[3-(2,5-dichloro-4,6-dimethyl-1-oxy-pyridin-3-yl)-[1,2,4]oxadiazol-5-yl]-3-nitrobenzene-1,2-diol] | convert into polymorph A or B | produced polymorph B |  |  |
| Cc1c(Cl)c(C)[n+]([O-])c(Cl)c1-c1noc(-c2cc(O)c(O)c([N+](=O)[O-])c2)n1 [polymorph B, 5-[3-(2,5-dichloro-4,6-dimethyl-1-oxy-pyridin-3-yl)-[1,2,4]oxadiazol-5-yl]-3-nitrobenzene-1,2-diol] |  |  | kinetically stable polymorphs | polymorphic conversion when slurried in water ([1]; slurried in water containing crystal seeds of modification A over prolonged periods of time): converts into polymorph A |
